From publication PMC6934184, “Selective DNA-PKcs inhibition extends the therapeutic index of localized radiotherapy and chemotherapy” (The Journal of Clinical Investigation, 2019)

Target: T1, RPS6KA4 (MSK2) (Homo sapiens, UniProt O75676)
T1 construct: purchased Thermo Fisher Scientific (Life Technologies) SelectScreen
Assay: SelectScreen Z'LYTE
Type: biochemical
Summary of the method: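 NU5455 was profiled across the SelectScreen Broad panel of kinase activity and binding assays. Z'LYTE reactions such as CSF1R ran at apparent Km ATP, while the Adapta CAMK1 assay used ATP listed as 10. Values are given as percent.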

T1 sequence (O75676 whole entry): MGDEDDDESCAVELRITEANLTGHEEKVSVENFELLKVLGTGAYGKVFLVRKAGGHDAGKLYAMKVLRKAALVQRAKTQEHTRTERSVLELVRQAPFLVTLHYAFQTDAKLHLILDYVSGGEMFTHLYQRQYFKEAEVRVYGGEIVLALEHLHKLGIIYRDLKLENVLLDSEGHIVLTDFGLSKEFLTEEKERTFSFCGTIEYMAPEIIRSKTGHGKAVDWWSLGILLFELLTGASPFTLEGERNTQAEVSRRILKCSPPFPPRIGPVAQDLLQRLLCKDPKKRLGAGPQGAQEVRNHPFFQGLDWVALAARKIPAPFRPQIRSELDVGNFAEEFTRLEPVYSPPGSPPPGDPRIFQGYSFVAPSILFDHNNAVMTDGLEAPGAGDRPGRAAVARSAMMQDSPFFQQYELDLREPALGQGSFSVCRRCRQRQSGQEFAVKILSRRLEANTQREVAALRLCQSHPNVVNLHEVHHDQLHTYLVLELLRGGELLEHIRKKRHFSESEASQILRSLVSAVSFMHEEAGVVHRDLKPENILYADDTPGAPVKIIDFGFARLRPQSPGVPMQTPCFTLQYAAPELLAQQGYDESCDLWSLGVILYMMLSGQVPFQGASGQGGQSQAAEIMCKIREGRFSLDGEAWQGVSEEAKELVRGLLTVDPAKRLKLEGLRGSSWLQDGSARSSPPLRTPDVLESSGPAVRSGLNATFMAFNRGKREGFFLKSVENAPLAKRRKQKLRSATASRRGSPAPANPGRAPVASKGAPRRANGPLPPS

CN(C(=O)CN1CCOCC1)c1ccc2sc3c(-c4cccc5c(=O)cc(N6CC7CCC(C6)O7)oc45)cccc3c2c1 [NU5455]
inhibition at 1 µM: 4.2%
